Test results taken from patent US5691335A, “Imidazolidine derivative and use thereof” (Suntory Limited, priority 1994, dated 1997).
Read-outs that look alike come from different tables or passages of the source.

Key:
[1] = molecular target: T1, cathepsin G (Homo sapiens, UniProt P08311); experiment: Inhibitory activity against cathepsin G (Ang I to Ang II conversion, HPLC); format: biochemical
T1 construct: cathepsin G (product of Calbiochem Co.) derived from human neutrophil; purchased Calbiochem Co; host or cells: human neutrophil
T1 sequence (P08311 21-244 limits assumed): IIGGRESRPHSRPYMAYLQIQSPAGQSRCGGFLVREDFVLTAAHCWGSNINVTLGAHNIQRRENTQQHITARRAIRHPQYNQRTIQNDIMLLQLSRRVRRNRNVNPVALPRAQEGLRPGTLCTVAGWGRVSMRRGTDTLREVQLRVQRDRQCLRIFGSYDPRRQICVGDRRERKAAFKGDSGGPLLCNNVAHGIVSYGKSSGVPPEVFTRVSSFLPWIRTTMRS
Experimental: (§1) After completion of the reaction, each liquid reaction mixture was subjected to high performance liquid chromatography on Develosil ODS-5 (product of Nomura Kagaku, 4.6 mm across×150 mm long) to develop it at a linear concentration gradient that the concentration of acetonitrile in 0.05% trifluoroacetic acid (hereinafter abbreviated as "TFA") is increased from 0% to 60% in 10 minutes at a flow rate of 2.0 ml/min. Monitoring was performed by the absorbance measurements at 210 nm. Peaks were identified by comparison with standard solutions of Ang I and Ang II. The areas of the peaks were determined by an integrator to quantitate Ang I and Ang II, thereby calculating chymase activity. The inhibitory activity against chymase was determined by calculating an inhibition rate, median inhibitory concentration (IC50) on the basis of the value in the blank test.
To a 20 mM Tris-hydrochloric acid buffer (pH 7.5) containing 2M KCl, were added 20 μl of a solution with cathepsin G (product of Calbiochem Co.) derived from human neutrophil dissolved at a concentration of 2 μg/ml in the same buffer, and 5 μl of a DMSO solution of a sample to be tested, and the resultant mixture was preincubated at 37° C. for 10 minutes and then added with 25 μl of a 1 mM solution of Ang I, followed by incubation at 37° C. for 30 minutes. Then, 50 μl of 30% acetic acid were added to stop the enzyme reaction. On the other hand, 5 μl of DMSO were added in place of the solution of the test sample to similarly conduct a reaction as a blank test. […] The inhibitory activity against cathepsin G was determined by calculating an inhibition rate, median inhibitory concentration (IC50) on the basis of the value in the blank test.

[2] = molecular target: T2, bovine pancreas α-chymotrypsin (Bos taurus, UniProt P00766); experiment: Inhibitory activity against chymotrypsin (Ang I conversion, HPLC); format: biochemical
T2 construct: bovine pancreas α-chymotrypsin (product of Sigma Chemical Co., TypeII); purchased Sigma Chemical Co. TypeII; host or cells: bovine pancreas
Experimental: as §1
To 12 μl of a 20 mM Tris-hydrochloric acid buffer (pH 7.5) containing 2M KCl, were added 8 μl of a solution with bovine pancreas α-chymotrypsin (product of Sigma Chemical Co., TypeII) dissolved at a concentration of 8 μg/ml in a 20 mM aqueous solution of CaCl2 containing 1 mM HCl, and 5 μl of a DMSO solution of a sample to be tested, and the resultant mixture was preincubated at 37° C. for 10 minutes and then added with 25 μl of a 1 mM solution of Ang I, followed by incubation at 37° C. for 15 minutes. Then, 50 μl of 30% acetic acid were added to stop the enzyme reaction. On the other hand, 5 μl of DMSO were added in place of the solution of the test sample to similarly conduct a reaction as a blank test. After completion of the reaction, each liquid reaction mixture was treated by high performance liquid chromatography in the same manner as in Test Example 1 to quantitate Ang I and Ang II, thereby calculating chymotripsin activity. The inhibitory activity against chymotrypsin was determined by calculating an inhibition rate, median inhibitory concentration (IC50) on the basis of the value in the blank test.

[3] = molecular target: T3, Human cardiac chymase (Homo sapiens, UniProt P23946); experiment: Inhibitory activity against chymase (Ang I to Ang II conversion, HPLC); format: biochemical
T3 construct: Human cardiac chymase was purified according to the process of Urata et al; from tissue; host or cells: human heart (cardiac)
T3 sequence (P23946 22-247): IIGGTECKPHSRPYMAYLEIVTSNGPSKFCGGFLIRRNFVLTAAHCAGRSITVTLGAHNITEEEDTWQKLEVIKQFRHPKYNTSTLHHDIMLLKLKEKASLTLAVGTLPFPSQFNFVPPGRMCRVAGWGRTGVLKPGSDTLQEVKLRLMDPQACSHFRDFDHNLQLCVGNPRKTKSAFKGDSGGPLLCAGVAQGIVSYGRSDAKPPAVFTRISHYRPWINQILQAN
Experimental: Human cardiac chymase was purified according to the process of Urata et al. (see the literature described above), and the inhibitory activities of the hydantoin compounds according to the present invention against the chymase were determined in the following manner. Namely, 10 μl of the purified chymase and 5 μl of a solution of a sample to be tested in dimethyl sulfoxide (hereinafter abbreviated as "DMSO") were added to 10 μl of a 20 mM Tris-hydrochloric acid buffer (pH 7.5) containing 2M KCl, and the resultant mixture was preincubated at 37° C. for 10 minutes and then added with 25 μl of a 1 mM solution of Ang I, followed by incubation at 37° C. for 30 minutes. Then, 50 μl of 30% acetic acid were added to stop the enzyme reaction. On the other hand, 5 μl of DMSO were added in place of the solution of the test sample to similarly conduct a reaction as a blank test.
as §1

[4] = system: chymase; settings: literature, Okunishi et al.; cited from earlier work
[5] = cited from earlier work
[6] = in vivo; settings: mouse, po
[7] = system: vascular restenosis after the operation of PTCA; settings: random multifacility clinical study, Circulation 1992; cited from earlier work
[8] = human neutrophil cathepsin G, 37° C., pH 7.5, Ang I substrate, read-out: Inhibitory activities against enzymes (IC50), Cathepsin
[9] = bovine pancreas, 37° C., pH 7.5, Ang I substrate, read-out: Inhibitory activities against enzymes (IC50), Chymotrypsin
[10] = 37° C., pH 7.5, Ang I substrate, read-out: Inhibitory activities against enzymes (IC50), Chymase

Compound	IC50 [1, 8]	IC50 [2, 9]	IC50 [3, 10]	other results
O=C1CN(c2ccc(Oc3ccccc3)cc2)C(=O)N1S(=O)(=O)c1ccc(Cl)cc1 [Compound 30, 3-(4-chlorobenzenesulfonyl)-1-(4-phenoxyphenyl)-imidazolidin-2,4-dione]	4.8 µM	39 µM		
COc1cccc(S(=O)(=O)N2C(=O)CN(c3ccccc3)C2=O)c1 [Compound 20, 1-phenyl-3-(3-methoxybenzenesulfonyl)-imidazolidin-2,4-dione]	8 µM	3.7 µM		
O=C1CN(c2ccccc2)C(=O)N1S(=O)(=O)c1cccc2ccccc12 [Compound 70, 3-(1-naphthysulfonyl)-1-(phenyl)-imidazolidin-2,4-dione]	1.8 µM	1.6 µM	550 nM	
O=C1CN(c2cnc3ccccc3c2)C(=O)N1S(=O)(=O)c1ccc(Cl)cc1 [Compound 80, 3-(4-chlorobenzenesulfonyl)-1-(3-quinolyl)-imidazolidin-2,4-dione]	19 µM	90 µM	170 nM	
O=C1CN(c2ccccc2)C(=O)N1C(=O)c1ccccc1Cl [Compound 10, 3-(2-chlorobenzoyl)-1-phenyl-imidazolidin-2,4-dione]	0.96 µM	3.5 µM	3700 nM	
CC(C)C[C@H](NC(=O)[C@@H](NC(=O)N[C@@H](Cc1ccccc1)C(=O)O)[C@@H]1CCN=C(N)N1)C(=O)N[C@H](C=O)Cc1ccccc1 [chymostatin]				inhibition of the enzymatic activity of chymase, in words [4]: inhibited by chymostatin; decomposition of peptide linkage in vivo [5]: easily decomposed in vivo
CC(C)(C)OC(=O)c1cccc(N2CC(=O)N(S(=O)(=O)c3ccc(Cl)cc3)C2=O)c1 [Compound 55]	9.8 µM	70 µM	15000 nM	
O=C1CN(c2ccc(Cl)c(Cl)c2)C(=O)N1S(=O)(=O)c1ccc2ccccc2c1 [Compound 75, 1-(3,4-dichlorophenyl)-3-(2-naphthylsulfonyl)imidazolidin-2,4-dione]	0.52 µM	2.4 µM	47 nM	
COC(=O)c1cccc(S(=O)(=O)N2C(=O)CN(c3ccccc3)C2=O)c1 [Compound 35, 3-(3-methoxycarbonylbenzenesulfonyl)1-phenyl-imidazolidin-2,4-dione]		1.8 µM		
O=C1CN(c2ccccc2)C(=O)N1S(=O)(=O)c1cccc(Oc2ccccc2)c1 [Compound 25, 3-(3-phenoxybenzenesulfonyl)-1-phenyl-imidazolidin-2,4-dione]	3.3 µM	1.4 µM		
Cc1ccc(N2CC(=O)N(S(=O)(=O)c3ccc(C)c(C)c3)C2=O)cc1C [Compound 60]	1.7 µM		60 nM	inhibition at 100 µM [2]: 33.6%
O=C1CN(c2ccc(Cl)cc2)C(=O)N1S(=O)(=O)c1ccc(Cl)cc1 [Compound 1, 3-(4-chlorobenzenesulfonyl)-1-(4-chlorophenyl)imidazolidin-2,4-dione]	1.5 µM	0.5 µM	300 nM	LD50 at 24 h [6]: ≥ 1000 mg/kg; selectivity ratio at 24 h [6]: ≥ 50
Cc1ccc(S(=O)(=O)N2C(=O)CN(c3ccccc3)C2=O)cc1 [Compound 5, 1-phenyl-3-(4-toluenesulfonyl)-imidazolidin-2,4-dione]	4.5 µM	7 µM		
Cc1ccccc1S(=O)(=O)N1C(=O)CN(c2ccccc2)C1=O [Compound 2, 1-phenyl-3-(2-toluenesulfonyl)-imidazolidin-2,4-dione]				LD50 at 24 h [6]: ≥ 1000 mg/kg; selectivity ratio at 24 h [6]: ≥ 50
CN1CCN(C(=O)Cc2ccc(S(=O)(=O)N3C(=O)CN(c4ccccc4)C3=O)cc2)CC1 [Compound 50, 3-(4-N-methylpiperazylcarbonyl-methylbenzenesulfonyl)-1-phenyl-imidazolidin-2,4-dione]				IC50 [1]: 11 µM; IC50 [2]: 5.2 µM; IC50 [3]: 850 nM
CCOC(=O)[C@H](CCc1ccccc1)N[C@H]1CCCN2CCC[C@@H](C(=O)O)N2C1=O [cilazapril]				prophylactic effect on vascular restenosis after PTCA versus placebo [7]: no statistically significant difference
O=C1CN(c2ccccc2)C(=O)N1C(=O)c1ccc(-c2ccccc2)cc1 [Compound 15, 3-(4-phenylbenzoyl)-1-phenyl-imidazolidin-2,4-dione]	3.2 µM	6.9 µM	14000 nM	
C=CCOC(=O)Cc1cccc(S(=O)(=O)N2C(=O)CN(c3ccccc3)C2=O)c1 [Compound 45, 3-(3-allyloxycarbonylmethylbenzenesulfonyl)-1-phenyl-imidazolidin-2,4-dione]	4.5 µM	3.5 µM	450 nM	
O=C(O)COc1ccc(S(=O)(=O)N2C(=O)CN(c3ccccc3)C2=O)cc1 [Compound 40, 3-(4-carboxymethyloxybenzenesulfonyl)-1-phenyl-imidazolidin-2,4-dione]	7 µM	34 µM	10000 nM	
C=CCOC(=O)c1ccc(S(=O)(=O)N2C(=O)CN(c3ccc(C)c(C)c3)C2=O)cc1 [Compound 65, 3-(4-allyloxycarbonylbenzenesulfonyl)-1-(3,4-dimethylphenyl)-imidazolidin-2,4-dione]	1.9 µM	8.5 µM	27 nM	
